Test results from patent US4337199A, “Antibiotic β-lactam compounds, production thereof, and their use as antimicrobial agent” (Sanraku-Ocean Co., Ltd., priority 1978, dated 1982).
In brackets after ≈: the same amount, converted by molar mass.

Columns and labels:
Assay in all cases: minimum inhibitory concentration, agar dilution assay
Assay type in all cases: cell-based
Escherichia coli RGN 823 = conditions: RGN823, agar dilution, 35° C., 20 hours, read-out: minimum inhibitory concentration
Experimental: (§1) The antibiotic activities shown in Tables I-1 to I-8 above were determined in the following manner.
(§2) The minimum inhibitory concentrations of the compounds of formula (I-a-1) or (I-b-1) in Tables I-1 to I-7 and the known compounds in Table I-8 on the various microorganisms shown in the above tables were measured by an agar dilution assay method using a brain heart infusion agar medium "Difco" (a product of Difco Laboratories Inc.)
(§3) A sample of the test compound was dissolved in sterile distilled water and diluted to prepare a two-fold dilution series of the compound solution. In a petri plate of 9 cm diameter, 1 ml of the compound solution was added to 9 ml of molten sterile heart infusion agar medium (Difco Laboratories Inc.) at about 60° C. to prepare the compound-containing agar plate. An overnight culture of each test organism indicated in the above table which was prepared by stationary cultivation in Trypto-Soy broth (Eiken Chemi. Co., Ltd.) at 35° C. for 18 to 20 hours, was diluted with the Trypto-Soy broth to give approximately 10^8 cells/ml and the diluted inoculum was inoculated onto the compound-containing agar plates. After cultivating the plates at 35° C. for 20 hours, the growth of the organism was observed. The minimum concentration of the compound at which no growth of the microorganism was noted was determined, and defined as the minimum inhibitory concentration of the test compound.

Providencia sp. P8 = conditions: SP.P8, agar dilution, 35° C., 20 hours, read-out: minimum inhibitory concentration
Experimental: as §1, §2, §3

Serratia marcescens S18 = conditions: S18, agar dilution, 35° C., 20 hours, read-out: minimum inhibitory concentration
Experimental: as §1, §2, §3

Serratia marcescens T55 = conditions: T55, agar dilution, 35° C., 20 hours, read-out: minimum inhibitory concentration
Experimental: as §1, §2, §3

Alcaligenes faecalis A 1 = conditions: A1, agar dilution, 35° C., 20 hours, read-out: minimum inhibitory concentration
Experimental: as §1, §2, §3

Proteus mirabilis P6 = conditions: P6, agar dilution, 35° C., 20 hours, read-out: minimum inhibitory concentration
Experimental: as §1, §2, §3

[1] = tested on: Staphylococcus aureus Smith; conditions: agar dilution, 35° C., 20 hours, read-out: minimum inhibitory concentration
Experimental: as §1, §2, §3

[2] = tested on: Staphylococcus epidermidis; conditions: agar dilution, 35° C., 20 hours, read-out: minimum inhibitory concentration
Experimental: as §1, §2, §3

Enterobacter cloacae 45 = conditions: Enterobacter cloacae, 45; agar dilution, 35° C., 20 hours; read-out: minimum inhibitory concentration
Experimental: as §1, §2, §3

Proteus sp. P22 = conditions: agar dilution, 35° C., 20 hours; read-out: minimum inhibitory concentration
Experimental: as §1, §2, §3

[3] = tested on: Bacillus subtilis ATCC 6633; conditions: ATCC6633, agar dilution, 35° C., 20 hours, read-out: minimum inhibitory concentration
Experimental: as §1, §2, §3

[4] = tested on: Enterobacter aerogenes E19; conditions: Klebsiella aerogenes, E19; agar dilution, 35° C., 20 hours; read-out: minimum inhibitory concentration
Experimental: as §1, §2, §3

Proteus vulgaris GN76 = conditions: GN76, agar dilution, 35° C., 20 hours, read-out: minimum inhibitory concentration
Experimental: as §1, §2, §3

Proteus rettgeri P7 = conditions: Providencia rettgeri, P7; agar dilution, 35° C., 20 hours; read-out: minimum inhibitory concentration
Experimental: as §1, §2, §3

[5] = tested on: Citrobacter freundii GN 346; conditions: GN346, agar dilution, 35° C., 20 hours, read-out: minimum inhibitory concentration
Experimental: as §1, §2, §3

Enterobacter sp. E8 = conditions: SP.E8, agar dilution, 35° C., 20 hours, read-out: minimum inhibitory concentration
Experimental: as §1, §2, §3

[6] = tested on: Pseudomonas aeruginosa IFO3445; conditions: IFO3445, agar dilution, 35° C., 20 hours, read-out: minimum inhibitory concentration
Experimental: as §1, §2, §3

[7] = tested on: Staphylococcus aureus Russell; conditions: agar dilution, 35° C., 20 hours, read-out: minimum inhibitory concentration
Experimental: as §1, §2, §3

[8] = tested on: Staphylococcus aureus FDA 209P; conditions: FDA209P, agar dilution, 35° C., 20 hours, read-out: minimum inhibitory concentration
Experimental: as §1, §2, §3

[9] = tested on: Comamonas terrigena B-996; conditions: B996, agar dilution, 35° C., 20 hours, read-out: minimum inhibitory concentration
Experimental: as §1, §2, §3

Escherichia coli K-12 = conditions: K12, agar dilution, 35° C., 20 hours, read-out: minimum inhibitory concentration
Experimental: as §1, §2, §3

Sarcina lutea = conditions: Micrococcus luteus; agar dilution, 35° C., 20 hours; read-out: minimum inhibitory concentration
Experimental: as §1, §2, §3

[10] = tested on: Klebsiella pneumoniae K-13; conditions: K13, agar dilution, 35° C., 20 hours, read-out: minimum inhibitory concentration
Experimental: as §1, §2, §3

[11] = tested on: Pseudomonas aeruginosa NCTC10490; conditions: NCTC10490, agar dilution, 35° C., 20 hours, read-out: minimum inhibitory concentration
Experimental: as §1, §2, §3

| Structure (SMILES) | MIC (Escherichia coli RGN 823) [µg/mL] | MIC (Providencia sp. P8) [µg/mL] | MIC (Serratia marcescens S18) [µg/mL] | MIC (Serratia marcescens T55) [µg/mL] | MIC (Alcaligenes faecalis A 1) [µg/mL] | MIC (Proteus mirabilis P6) [µg/mL] | MIC [1] [µg/mL] | MIC [2] [µg/mL] | MIC (Enterobacter cloacae 45) [µg/mL] | MIC (Proteus sp. P22) [µg/mL] | MIC [3] [µg/mL] | MIC [4] [µg/mL] | MIC (Proteus vulgaris GN76) [µg/mL] | MIC (Proteus rettgeri P7) [µg/mL] | MIC [5] [µg/mL] | MIC (Enterobacter sp. E8) [µg/mL] | MIC [6] [µg/mL] | MIC [7] [µg/mL] | MIC [8] [µg/mL] | MIC [9] [µg/mL] | further results |
| --- | --- | --- | --- | --- | --- | --- | --- | --- | --- | --- | --- | --- | --- | --- | --- | --- | --- | --- | --- | --- | --- |
| CC(O)[C@H]1C(=O)N2C(C(=O)O)=C(Sc3ncccn3)C[C@H]12 (stereo partly drawn) [Example 63, 5,6-trans-3-(2-Pyrimidinylthio)-6-(1-hydroxyethyl)-7-oxo-1-azabicyclo[3.2.0]hept-2-ene-2-carboxylic acid] | 3.13 (≈ 10.2 µM) | 0.78 (≈ 2.54 µM) | 50 (≈ 163 µM) | 100 (≈ 325 µM) | 1.56 (≈ 5.08 µM) | 12.5 (≈ 40.7 µM) | 0.39 (≈ 1.27 µM) | 0.39 (≈ 1.27 µM) | 50 (≈ 163 µM) | 12.5 (≈ 40.7 µM) | 0.39 (≈ 1.27 µM) | 100 (≈ 325 µM) | 12.5 (≈ 40.7 µM) | 12.5 (≈ 40.7 µM) | 100 (≈ 325 µM) | 6.25 (≈ 20.3 µM) | 12.5 (≈ 40.7 µM) | 0.39 (≈ 1.27 µM) | 0.2 (≈ 0.651 µM) | 0.05 (≈ 0.163 µM) | MIC (Escherichia coli K-12): 1.56 µg/mL (≈ 5.08 µM); MIC (Sarcina lutea): 0.2 µg/mL (≈ 0.651 µM); MIC [10]: 25 µg/mL (≈ 81.3 µM); MIC [11]: 12.5 µg/mL (≈ 40.7 µM) |
| CCC1C(=O)N2C(C(=O)O)=C(SC3CCCCC3)CC12 (stereo not drawn) [Example 67, Sodium 3-cyclohexylthio-6-ethyl-7-oxo-1-azabicyclo[3.2.0.]hept-2-ene-2-carboxylate] | 180 | 180 | > 180 | > 180 | 5.6 | 45 | 0.04 | 0.04 | > 180 | 90 | 0.09 | > 180 | 180 | 180 | > 180 | > 180 | 180 | < 0.01 | < 0.01 | < 0.01 | MIC (Escherichia coli K-12): 180 µg/mL; MIC (Sarcina lutea): < 0.01 µg/mL; MIC [10]: > 180 µg/mL; MIC [11]: 22.5 µg/mL |
| CC(=O)NCCSC1=C(C(=O)O)N2C(=O)C(C(C)O)C2C1 (stereo not drawn) [PS-3B, 3-(2-acetamidoethylthio)-6-(1-hydroxyethyl)-7-oxo-1-azabicyclo[3.2.0]hept-2-ene-2-carboxylic acid, reference compound] | 1.06 (≈ 3.37 µM) | 0.27 (≈ 0.859 µM) | 2.13 (≈ 6.78 µM) | 2.13 (≈ 6.78 µM) | 0.07 (≈ 0.223 µM) | 0.53 (≈ 1.69 µM) | 0.13 (≈ 0.414 µM) | 0.07 (≈ 0.223 µM) | 1.06 (≈ 3.37 µM) | 17 (≈ 54.1 µM) | 0.004 (≈ 0.0127 µM) | 0.27 (≈ 0.859 µM) | 8.5 (≈ 27 µM) | 17 (≈ 54.1 µM) | 0.53 (≈ 1.69 µM) | 0.07 (≈ 0.223 µM) | 17 (≈ 54.1 µM) | 0.13 (≈ 0.414 µM) | 0.07 (≈ 0.223 µM) | 0.001 (≈ 0.00318 µM) | MIC (Escherichia coli K-12): 0.07 µg/mL (≈ 0.223 µM); MIC (Sarcina lutea): 0.004 µg/mL (≈ 0.0127 µM); MIC [10]: 8.5 µg/mL (≈ 27 µM); MIC [11]: 34 µg/mL (≈ 108 µM) |
| CC(C)C1C(=O)N2C(C(=O)O)=C(SCCO)CC12 (stereo not drawn) [R1 --CH3, R21 --CH2 CH2 OH] | 12.5 (≈ 46.1 µM) | 6.25 (≈ 23 µM) | 12.5 (≈ 46.1 µM) | 50 (≈ 184 µM) | 1.56 (≈ 5.75 µM) | 25 (≈ 92.1 µM) | 0.39 (≈ 1.44 µM) | 0.39 (≈ 1.44 µM) | 25 (≈ 92.1 µM) | 50 (≈ 184 µM) | 0.39 (≈ 1.44 µM) | 12.5 (≈ 46.1 µM) | 25 (≈ 92.1 µM) | 12.5 (≈ 46.1 µM) | 12.5 (≈ 46.1 µM) | 12.5 (≈ 46.1 µM) | 12.5 (≈ 46.1 µM) | 0.39 (≈ 1.44 µM) | 0.2 (≈ 0.737 µM) | 0.05 (≈ 0.184 µM) | MIC (Escherichia coli K-12): 12.5 µg/mL (≈ 46.1 µM); MIC (Sarcina lutea): 0.39 µg/mL (≈ 1.44 µM); MIC [10]: 12.5 µg/mL (≈ 46.1 µM); MIC [11]: 25 µg/mL (≈ 92.1 µM) |
| CC(O)C1C(=O)N2C(C(=O)O)=C(SCCO)CC12 (stereo not drawn) [R1 --OH**, R21 --CH2 CH2 OH] | 6.25 (≈ 22.9 µM) | 0.78 (≈ 2.85 µM) | 12.5 (≈ 45.7 µM) | 12.5 (≈ 45.7 µM) | 0.39 (≈ 1.43 µM) | 3.13 (≈ 11.5 µM) | 0.1 (≈ 0.366 µM) | 0.2 (≈ 0.732 µM) | 1.56 (≈ 5.71 µM) | 100 (≈ 366 µM) | 0.013 (≈ 0.0476 µM) | 0.39 (≈ 1.43 µM) | 25 (≈ 91.5 µM) | 6.25 (≈ 22.9 µM) | 0.78 (≈ 2.85 µM) | 0.2 (≈ 0.732 µM) | 25 (≈ 91.5 µM) | 0.2 (≈ 0.732 µM) | 0.013 (≈ 0.0476 µM) | 0.013 (≈ 0.0476 µM) | MIC (Escherichia coli K-12): 0.2 µg/mL (≈ 0.732 µM); MIC (Sarcina lutea): 0.013 µg/mL (≈ 0.0476 µM); MIC [10]: 25 µg/mL (≈ 91.5 µM); MIC [11]: 25 µg/mL (≈ 91.5 µM) |
